Laboratory results published in patent publication US20100022620A1, “EPITOPE REDUCTION THERAPY” (priority 2006, published 2010).

What was measured:
[1] = test system: RAW cells; assay: Orcinol-stained TLC of GM1 in RAW cell extract; type: cell-based; conditions: for IC50: GM1 in RAW cells, stated only as comparable to 50 μM, read-out: apparent IC50 estimated from orcinol stained RAW TLC; for levels of GM1 in RAW cells: orcinol staining, 0 to 1000 μM drug (FIG. 15)
Text: A third TLC plate (FIG. 15) with standardised amounts of sample was run in an identical manner to those in FIG. 14 but stained with orcinol.

[2] = test system: GSL levels; conditions: mice, cited from earlier work
[3] = test system: PC12 cells; assay: Anti-ganglioside antibody / complement-mediated lysis of PC12 cells (LDH release); type: cell-based
Protocol: (§1) PC12 cells were grown under standard undifferentiated conditions with and without a range of NB-DNJ concentrations (1, 5, 10, 50, 100 and 500 μM). Cells were grown in flasks for immunocytology and analytical studies on ganglioside levels and also in 96-well tissue culture plates for antibody mediated lysis studies. Time points examined were day 0, 1, 2 and 3, and 2 and 3 days post-compound wash out.
The consequences of reduced anti-ganglioside antibody binding treated cells were evaluated by measuring antibody-mediated cytotoxicity (FIGS. 4 and 5). Thus, cells from each day and NB-DNJ concentration were also assayed for anti-ganglioside antibody-mediated cytotoxicity. Lysis studies were conducted using anti-ganglioside antibodies in conjunction with fresh human serum as a source of complement. Cell viability was quantitated by colourimetric assay measuring LDH release upon cell lysis.
After coating onto 96 well tissue culture plates (5×10^3 cells/well), the cells were incubated with anti-GT1b antibody at 10 μg/ml for 1 hour at room temperature. Then, 10% human serum was added as a source of complement for a further hour at 37° C. Complement-mediated cell lysis was measured using a Cytotox 96 cytotoxic assay kit (Promega), following the instructions supplied. LDH released upon cell lysis was measured by a colourimetric assay; a tetrazolium salt is converted into a red formazan product. […]

[4] = test system: PC12 cells; assay: Immunocytology: anti-GT1b antibody binding to PC12 cells by flow cytometry; type: cell-based; conditions: for reduction in anti-ganglioside antibody binding: 3 days of exposure, anti-GT1b mAb
Protocol: as §1
PC12 cells were grown in DMEM containing 7.5% FCS and 7.5% horse serum. The medium was supplemented with 0, 1, 5, 10, 50, 100 or 500 μM NB-DNJ and the cells cultured for 3 days. The media was then replaced with DMEM without NB-DNJ and the cells cultured for a further 3 days. At days 0, 1, 2, 3 and days 2 and 3 post NB-DNJ treatment, cells were harvested and ganglioside levels assessed by analysing anti-ganglioside antibody binding using flow cytometry. Briefly, 1×10^5 cells were stained with 10 μg/ml of a murine anti-GT1b mAb for 1 hour at room temperature. Binding was then detected by a FITC labelled antibody with specificity for mouse IgG. Binding is expressed in FIGS. 2 and 3 as the mean fluorescence of triplicate experiments. To allow any reduction in ganglioside levels to be clearly visualised at each time point, the mean fluorescence is shown as a percentage of that at day 0. Error bars indicate sem.

[5] = cited from earlier work; for CNS penetration: mouse, in vivo; for neurological side effects: treatment of adult mice
[6] = test system: PC12 cells; assay: HPLC analysis of PC12 gangliosides; type: cell-based; conditions: for ganglioside depletion in PC12 cells: HPLC (FIG. 17)
Protocol: In the absence of detectable binding by TLC immuno-overlay, a new technique was necessary to analyse the identity and relative abundance of gangliosides present on PC12 cells. To this end, HPLC was carried out on ganglioside extracted from PC12 cells grown in a range of NB-DGJ and NB-DNJ concentrations from 0-1 mM.

[7] = test system: Neuroblastoma NB1 cells; assay: Fluorescence microscopy of sera binding to Neuroblastoma NB1 cells; type: cell-based; conditions: NB1 cells treated with various concentrations; some GBS serum samples such as patient 7
Text: This non-specific staining hinders interpretation of results when using whole sera. Cell staining indicated the necessity for a technique which provides isolated antigen, thereby reducing the potential of non-specific staining.

[8] = test system: RAW cells; assay: TLC immuno-overlay of RAW cell ganglioside extract with GBS patient serum (anti-GM1 binding); type: cell-based; conditions: for GBS patient sera antibody binding to GM1: RAW cells grown in 0 to 1000 μM drug, patient '8' serum (FIG. 13)
Protocol: GSL was extracted from RAW cells incubated in a range of NB-DNJ and NB-DGJ concentrations from 0 to 1 mM and separated by TLC. Extract was run parallel to purified GM1 on duplicate TLC plates. Immuno-overlay was carried out using patient ‘8’ and control ‘4’ sera.
The procedure was then repeated with standardisation of the amount of material loaded onto the gel (FIG. 14). This was calculated using the bicinchoninic acid protein quantification method (Chan et al., 1993). […] No binding was observed when the overlay was conducted with control serum, indicating specificity of this effect to GBS auto-antibody.

[9] = test system: PC12 cells; assay: HPLC analysis of GSL levels in NB-DNJ treated PC12 cells; type: cell-based; conditions: day 3, PC12 cells, preliminary analysis
Protocol: as §1
HPLC analysis of the treated and untreated cells was performed to determine the extent of GSL depletion that results from NB-DNJ treatment.

[10] = test system: sialyltransferase; conditions: cited from earlier work
[11] = test system: GSL biosynthesis; conditions: compared with NB-DNJ; cited from earlier work
[12] = test system: total ganglioside and GM1 content; conditions: cerebrum-brainstem; cited from earlier work
[13] = mouse models of GSL storage diseases; cited from earlier work
[14] = molecular target: T1, human α-1,3-fucosyltransferase V (Homo sapiens, UniProt Q11128); conditions: in the presence of guanosine diphosphate (GDP); cited from earlier work
T1 sequence (Q11128 1-374): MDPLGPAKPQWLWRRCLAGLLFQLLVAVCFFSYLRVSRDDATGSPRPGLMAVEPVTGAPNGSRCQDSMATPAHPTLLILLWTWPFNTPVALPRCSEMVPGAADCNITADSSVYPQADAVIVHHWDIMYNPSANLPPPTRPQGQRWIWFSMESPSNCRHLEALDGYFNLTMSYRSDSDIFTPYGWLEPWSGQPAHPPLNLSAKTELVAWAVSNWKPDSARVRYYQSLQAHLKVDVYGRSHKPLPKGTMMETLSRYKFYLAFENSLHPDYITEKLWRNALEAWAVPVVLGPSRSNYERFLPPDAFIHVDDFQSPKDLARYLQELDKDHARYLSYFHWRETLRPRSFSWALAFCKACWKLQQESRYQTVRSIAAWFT

[15] = molecular target: T2, rat recombinant α-2,6-ST (Rattus norvegicus, UniProt P13721); conditions: cited from earlier work
T2 sequence (P13721 1-403): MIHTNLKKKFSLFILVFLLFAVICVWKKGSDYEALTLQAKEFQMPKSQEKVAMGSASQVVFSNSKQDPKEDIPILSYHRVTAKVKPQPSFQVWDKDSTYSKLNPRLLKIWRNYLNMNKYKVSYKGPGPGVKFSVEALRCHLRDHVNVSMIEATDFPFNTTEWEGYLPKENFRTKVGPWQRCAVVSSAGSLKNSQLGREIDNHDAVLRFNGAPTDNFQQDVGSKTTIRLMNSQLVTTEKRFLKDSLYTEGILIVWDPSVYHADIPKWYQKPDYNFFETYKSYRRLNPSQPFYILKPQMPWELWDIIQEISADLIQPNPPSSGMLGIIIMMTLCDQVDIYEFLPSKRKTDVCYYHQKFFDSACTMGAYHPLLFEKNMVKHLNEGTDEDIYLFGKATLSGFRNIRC

[16] = test system: rat recombinant α-2,3-ST; conditions: cited from earlier work
[17] = RAW cells, standardised amount of material (FIG. 14)

For `CCCCN1C[C@H](O)[C@@H](O)[C@H](O)[C@H]1CO` [NB-DNJ, N-butyldeoxynojirimycin], the IC50 [1] is given as about 50 µM, the “levels of GM1 in RAW cells” value [1] is given as “drug dependent decrease” and the “time at which effect on GSL levels stabilizes” value [2] is given as 10 days. The GSL levels ([2]; within a day of treatment) was “measurable decrease”, the “protection from complement mediated lysis” value ([3]; 100 uM) was “approximately 60%” and the “protection from complement mediated lysis” value ([3]; 500 uM) was about 80%. The anti-ganglioside antibody binding ([4]; 50 μM and higher concentrations) was “significant time dependent reduction”, the “reduction in anti-ganglioside antibody binding” value ([4]; 100 μM) was 70% and the “reduction in anti-ganglioside antibody binding” value ([4]; 500 μM) was 90%. The “anti-ganglioside antibody binding after wash out of the compound” value ([4]; by day 3 post wash out) was “returning to the levels of untreated cells”, the CNS penetration [5] was “penetrate the CNS” and the neurological side effects [5] was “not to cause neurological side effects”. The “ganglioside depletion in PC12 cells” value ([6]; 50 μM) was “significant ganglioside depletion”, the “ganglioside depletion in PC12 cells” value ([6]; 1 mM) was “Further depletion” and the “fluorescence of serum binding on drug-treated cells” value [7] was “decrease in fluorescence”. The “GBS patient sera antibody binding to GM1” value [8] was “drug dependent decrease”, the “patient anti-GM1 antibody binding as drug concentration was increased” value [8, 17] was “progressively lower levels” and the GSL levels [9] was 10-20 % of control.

In the case of `C[C@@H]1O[C@@H](O[C@H]2[C@H](O[C@H]3[C@H](O[C@H]4CC[C@@]5(C)[C@@H](CC[C@]6(C)[C@@H]5CC=C5[C@@H]7CC(C)(C)C[C@@H](O)[C@]7(C)CC[C@]56C)[C@@]4(C)CO)O[C@H](C(=O)O)[C@@H](O)[C@@H]3O)O[C@H](CO)[C@H](O)[C@@H]2O)[C@H](O)[C@H](O)[C@H]1O` [Soyasaponin I], the sialyltransferase inhibition [10] is given as “potent and specific”.

In the case of `CCCCN1C[C@H](O)[C@@H](O)[C@@H](O)[C@H]1CO` [NB-DGJ, N-butyldeoxygalactonojirimycin], the “inhibition of GSL biosynthesis” value [11] is listed as “comparably to NB-DNJ”, the “total ganglioside and GM1 content” value [12] is listed as “marked reduction” and the IC50 [1] is listed as about 50 µM. For the same molecule, the “levels of GM1 in RAW cells” value [1] was “drug dependent decrease”, the CNS penetration [5] was “penetrate the CNS” and the neurological side effects [5] was “not to cause neurological side effects”. The “ganglioside depletion in PC12 cells” value ([6]; 50 μM) was “significant ganglioside depletion”, the “ganglioside depletion in PC12 cells” value ([6]; 1 mM) was “Further depletion” and the “inhibitor potency, comparison of the two drugs” value ([6]; PC12 cells, HPLC) was “more a potent inhibitor”. The tolerability [13] was “very well tolerated”, the “fluorescence of serum binding on drug-treated cells” value [7] was “decrease in fluorescence” and the “GBS patient sera antibody binding to GM1” value [8] was “drug dependent decrease”. The “drug dependent decrease in antibody binding to GM1, comparison of the two drugs” value ([8]; RAW cells, FIG. 13) was “slightly more efficient”, the “decrease of patient anti-GM1 antibody binding, comparison of the two drugs” value [8, 17] was “more pronounced” and the “patient anti-GM1 antibody binding as drug concentration was increased” value [8, 17] was “progressively lower levels”.

In the case of `CCCO[C@H]1O[C@H](CO)[C@@H](O[C@@H]2O[C@H](CO)[C@H](O)[C@H](O)[C@H]2O)[C@H](OCCN2C(C)C(O)C(O)C(O)C2CO)[C@H]1NC(C)=O` (stereo partly drawn) [propyl 2-acetamido-2-deoxy-4-O-(β-D-galactopyranosyl)-3-O-(2-(N-(β-L-homofaconojirimycinyl))ethyl)-α-D-glucopyranoside], the “inhibition of human α-1,3-fucosyltransferase V” value [14] is listed as “effective inhibitor”.

In the case of cytidin-5′-yl sialylethylphosphonate, the IC50 [15] is listed as 340 µM and the IC50 [16] is listed as 47 µM.
